Measured values: patent US7135466B2 (Kirin Beer Kabushiki Kaisha, priority 1999, dated 2006)
Where two headings read alike, the source gives them in different places.

Experiments:
PDGF-Ra = target: T1, PDGF-Ra (Homo sapiens, UniProt P16234); experiment: Inhibitory activity against PDGF-Ra phosphorylation by PDGF-AA stimulation using G292; type: cell-based; conditions: for IC50: > means inhibition at indicated concentration not more than 50%, < and << not less than 50%, read-out: PDGF (E) IC50
T1 construct: host or cells: G-292 human osteosarcoma cells
T1 sequence (P16234 24-1089): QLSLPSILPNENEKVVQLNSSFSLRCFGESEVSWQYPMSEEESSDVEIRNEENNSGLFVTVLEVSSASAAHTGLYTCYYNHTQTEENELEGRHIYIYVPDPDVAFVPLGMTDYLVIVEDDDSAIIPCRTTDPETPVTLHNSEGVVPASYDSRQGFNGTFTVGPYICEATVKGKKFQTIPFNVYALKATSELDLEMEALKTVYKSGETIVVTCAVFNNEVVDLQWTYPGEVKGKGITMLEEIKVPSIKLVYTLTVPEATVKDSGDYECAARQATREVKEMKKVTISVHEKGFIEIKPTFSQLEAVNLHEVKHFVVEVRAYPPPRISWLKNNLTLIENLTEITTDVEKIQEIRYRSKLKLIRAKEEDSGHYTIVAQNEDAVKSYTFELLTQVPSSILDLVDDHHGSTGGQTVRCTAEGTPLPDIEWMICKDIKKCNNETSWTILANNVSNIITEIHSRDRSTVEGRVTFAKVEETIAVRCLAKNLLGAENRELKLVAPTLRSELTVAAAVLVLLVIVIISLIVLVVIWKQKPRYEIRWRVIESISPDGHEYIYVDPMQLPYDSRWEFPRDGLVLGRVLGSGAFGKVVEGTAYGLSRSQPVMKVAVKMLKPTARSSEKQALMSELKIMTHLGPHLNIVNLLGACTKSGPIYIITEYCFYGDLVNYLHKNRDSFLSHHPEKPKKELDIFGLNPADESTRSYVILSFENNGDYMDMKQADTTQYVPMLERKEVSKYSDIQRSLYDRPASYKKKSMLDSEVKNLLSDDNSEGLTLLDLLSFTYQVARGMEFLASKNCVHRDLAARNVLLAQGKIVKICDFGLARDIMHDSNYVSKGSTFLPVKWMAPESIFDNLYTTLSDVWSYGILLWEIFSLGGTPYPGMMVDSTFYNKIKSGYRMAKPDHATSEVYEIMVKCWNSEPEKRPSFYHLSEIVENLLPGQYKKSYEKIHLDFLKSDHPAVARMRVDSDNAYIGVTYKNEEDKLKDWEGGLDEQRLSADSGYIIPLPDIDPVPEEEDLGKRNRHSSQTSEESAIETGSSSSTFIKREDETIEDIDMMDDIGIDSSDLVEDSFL
Method in brief: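 In G-292 osteosarcoma cells kept overnight in 0.1% FBS, compound exposure (1 hr, 37 °C) preceded PDGF-AA stimulation at 50 ng/ml for 5 min; receptor phosphotyrosine was then detected by PY-20 capture ELISA.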

c-kit = target: T2, c-kit (Homo sapiens, UniProt P10721); experiment: Inhibitory activity against c-kit autophosphorylation (MO7e cells, h-SCF); type: cell-based; conditions: for IC50: MO7e cells, read-out: c-kit IC50
T2 construct: MO7e (human megakaryocytic leukemia cell line) which had been arrested for 20 hr; endogenous in cells; host or cells: MO7e human megakaryocytic leukemia cell line
T2 sequence (P10721 26-976): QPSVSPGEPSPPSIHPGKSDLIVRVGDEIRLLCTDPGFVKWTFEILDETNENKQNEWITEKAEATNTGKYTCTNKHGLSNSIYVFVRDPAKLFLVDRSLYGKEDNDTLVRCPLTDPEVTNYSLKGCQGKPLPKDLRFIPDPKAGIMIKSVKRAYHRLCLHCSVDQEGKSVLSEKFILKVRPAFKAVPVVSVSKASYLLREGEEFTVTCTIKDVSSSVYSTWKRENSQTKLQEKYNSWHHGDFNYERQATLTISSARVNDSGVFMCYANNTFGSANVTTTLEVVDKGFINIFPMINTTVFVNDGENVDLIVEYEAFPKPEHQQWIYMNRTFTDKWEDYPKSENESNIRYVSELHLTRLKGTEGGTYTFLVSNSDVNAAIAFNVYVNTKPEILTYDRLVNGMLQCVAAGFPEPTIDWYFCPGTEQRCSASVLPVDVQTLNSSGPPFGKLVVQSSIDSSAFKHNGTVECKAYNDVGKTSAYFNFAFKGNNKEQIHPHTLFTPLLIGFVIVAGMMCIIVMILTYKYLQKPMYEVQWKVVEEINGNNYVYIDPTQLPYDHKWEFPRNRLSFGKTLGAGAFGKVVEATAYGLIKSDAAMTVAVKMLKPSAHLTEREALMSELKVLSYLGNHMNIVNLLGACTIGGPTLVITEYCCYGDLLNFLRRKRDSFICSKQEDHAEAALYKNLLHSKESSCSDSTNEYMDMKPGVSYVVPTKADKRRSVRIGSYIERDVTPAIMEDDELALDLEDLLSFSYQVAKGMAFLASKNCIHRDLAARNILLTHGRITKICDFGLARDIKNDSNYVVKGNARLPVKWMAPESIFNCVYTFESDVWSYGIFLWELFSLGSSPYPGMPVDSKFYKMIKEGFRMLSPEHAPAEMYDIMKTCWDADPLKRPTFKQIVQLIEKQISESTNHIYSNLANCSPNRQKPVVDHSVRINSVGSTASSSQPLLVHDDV
Method in brief: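 MO7e human megakaryocytic leukemia cells, arrested 20 hr, treated with compound 1 hr, then stimulated with 50 ng/ml h-SCF for 5 min and lysed. Lysates captured on immobilized anti-phosphotyrosine antibody, detected with anti-c-kit primary and HRP secondary antibody; absorbance at 450 nm.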

| Compound | IC50 (PDGF-Ra; Pharmacological Test Example 1) [nM] | IC50 (c-kit; h-SCF 50 ng/ml) [nM] | also measured |
| --- | --- | --- | --- |
| 3-Morpholinopropyl N-{4-[(6,7-dimethoxy-4-quinolyl)oxy]-2,5-dimethylphenyl}carbamate [Example 423] |  |  | IC50 (PDGF-Ra): < 10 nM; IC50 (c-kit; 50 ng/ml h-SCF): 102 nM |
| 3-[(4-Methylphenyl)sulfanyl]ethyl N-{4-[(6,7-dimethoxy-4-quinolyl)oxy]-2,5-dimethylphenyl}carbamate [Example 139] | 57 | 80 |  |
| COc1cc2ncnc(Oc3ccc(NC(=O)OCc4ccc(C)cc4)cc3)c2cc1OC [Example 1, 4-Methylbenzyl N-{4-[(6,7-dimethoxy-4-quinazolinyl)oxy]phenyl}carbamate] | < 10 | 52 |  |
| COc1cc2ncnc(Oc3ccc(NC(=O)OC(C)c4cccc(Cl)c4)cc3)c2cc1OC (stereo not drawn) [Example 6, 1-(3-Chlorophenyl)ethyl N-{4-[(6,7-dimethoxy-4-quinazolinyl)oxy]phenyl}carbamate] | < 10 | 175 |  |
| COc1cc2ncnc(Oc3ccc(NC(=O)OC(C)c4cccc(Cl)c4)c(Cl)c3)c2cc1OC (stereo not drawn) [Example 7] | 12 | 616 |  |
| COc1cc2nccc(Oc3ccc(NC(=O)OCc4ccc(F)cc4)cc3)c2cc1OC [Example 8, 4-Fluorobenzyl N-{4-[(6,7-dimethoxy-4-quinolyl)oxy]phenyl}carbamate] | < 10 | 62 |  |
| COc1cc2ncnc(Oc3ccc(NC(=O)OCc4ccc(F)cc4)c(Cl)c3)c2cc1OC [Example 12, 4-Fuorobenzyl N-{2-chloro-4-[(6,7-dimethoxy-4-quinazolinyl)oxy]phenyl}carbamate] | 11 | 389 |  |
| COc1cc2nccc(Oc3ccc(NC(=O)OC(C)c4ccccc4Cl)c(C)c3C)c2cc1OC (stereo not drawn) [Example 14, 1-(2-Chlorophenyl)ethyl N-{4-[(6,7-dimethoxy-4-quinolyl)oxy]-2,3-dimethylphenyl}carbamate] | 12 | 209 |  |
| COc1cc2ncnc(Oc3ccc(NC(=O)OC(C)c4ccccc4Cl)c(Cl)c3)c2cc1OC (stereo not drawn) [Example 16, 1-(2-Chlorophenyl)ethyl N-{2-chloro-4-[(6,7-dimethoxy-4-quinazolinyl)oxy]phenyl}carbamate] | < 10 | 495 |  |
| COc1cc2ncnc(Oc3ccc(NC(=O)OCCCOc4ccccc4Cl)cc3)c2cc1OC [Example 19, 3-(2-Chlorophenoxy)propyl N-{4-[(6,7-dimethoxy-4-quinazolinyl)oxy]phenyl}carbamate] | < 10 | 41 |  |
| COc1cc2ncnc(Oc3ccc(NC(=O)OCCCOc4ccccc4Cl)c(Cl)c3)c2cc1OC [Example 20, 3-(2-Chlorophenoxy)propyl N-{2-chloro-4-[(6,7-dimethoxy-4-quinazolinyl)oxy]phenyl}carbamate] | < 10 | 109 |  |
| COc1cc2ncnc(Oc3ccc(NC(=O)OCc4ccc(C(F)(F)F)cc4)cc3)c2cc1OC [Example 24, 4-(Trifluoromethyl)benzyl N-{4-[(6,7-dimethoxy-4-quinazolinyl)oxy]phenyl}carbamate] | < 10 | 129 |  |
| COc1cc2ncnc(Oc3ccc(NC(=O)OCc4ccc(C(F)(F)F)cc4)c(Cl)c3)c2cc1OC [Example 25, 4-(Trifluoromethyl)benzyl N-{2-chloro-4-[(6,7-dimethoxy-4-quinazolinyl)oxy]phenyl}carbamate] | < 10 | 566 |  |
| COc1cc2nccc(Oc3ccc(NC(=O)OCCCOc4ccccc4Cl)cc3)c2cc1OC [Example 26, 3-(2-Chlorophenoxy)propyl N-{4-[(6,7-dimethoxy-4-quinolyl)oxy]phenyl}carbamate] | < 10 | 44 |  |
| COc1cc2nccc(Oc3ccc(NC(=O)OCCCOc4ccc(Cl)cc4)cc3)c2cc1OC [Example 27, 3-(4-Chlorophenoxy)propyl N-{4-[(6,7-dimethoxy-4-quinolyl)oxy]phenyl}carbamate] | < 10 | 76 |  |
| COc1cc2nccc(Oc3ccc(NC(=S)NC(=O)C4(c5ccccc5)CC4)cc3Cl)c2cc1OC [Example 1194, N-{3-Chloro-4-[(6,7-dimethoxy-4-quinolyl)oxy]phenyl}-N′-[(1-phenylcyclopropyl)carbonyl]thiourea] |  |  | IC50 (PDGF-Ra): 56 nM |
| COc1cc2ncnc(Oc3ccc(NC(=S)NC(=O)CCCl)cc3)c2cc1OC [Example 1199, N-(3-Chloropropanoyl)-N′-{4-[(6,7-dimethoxy-4-quinazolinyl)oxy]phenyl}thiourea] |  |  | IC50 (PDGF-Ra): 42 nM |
| COc1ccc(C(=O)NC(=S)Nc2ccc(Oc3ncnc4cc(OC)c(OC)cc34)cc2)cc1OC [Example 1203, N-(3,4-Dimethoxybenzoyl)-N′-{4-[(6,7-dimethoxy-4-quinazolinyl)oxy]phenyl}thiourea] |  |  | IC50 (PDGF-Ra): < 10 nM |
| N-{4-[(6,7-Dimethoxy-4-quinazolinyl)oxy]phenyl}-N-ethyl-N′-(4-phenylbutanoyl)thiourea [Example 1140] |  |  | IC50 (PDGF-Ra): > 100 nM; PDGF (E) inhibition (%) at 100 nM (PDGF-Ra; figure in parentheses in >100( ), at 100 nM): 22% |
| N-{4-[(6,7-Dimethoxy-4-quinolyl)oxy]-2,5-dimethylphenyl}-N′-(N-cyclohexylamino)thiourea [Example 523] |  |  | IC50 (PDGF-Ra): > 100 nM |

Further lines, with some results ahead:

| IC50 (PDGF-Ra; Pharmacological Test Example 1) [nM] | IC50 (c-kit; h-SCF 50 ng/ml) [nM] | Compound | also measured |
| --- | --- | --- | --- |
| < 10 | 173 | 1-(3-Chlorophenyl)ethyl N-{4-((6,7-dimethoxy-4-quinazolinyl)oxy)phenyl}carbamate [Example 3] |  |
| 91 | 715 | 4-(Dimethylamino)butyl N-{4-[(6,7-dimethoxy-4-quinazolinyl)oxy]phenyl}carbamate [Example 194] |  |
| 17 | 422 | COc1cc2ncnc(Oc3ccc(NC(=O)OCc4ccc(C)cc4)c(Cl)c3)c2cc1OC [Example 2, 4-Methylbenzyl N-{2-chloro-4-[(6,7-dimethoxy-4-quinazolinyl)oxy]phenyl}carbamate] |  |
| < 10 | 133 | COc1cc2nccc(Oc3ccc(NC(=O)OC(C)c4cccc(Cl)c4)c(C)c3C)c2cc1OC (stereo not drawn) [Example 4, 1-(3-Chlorophenyl)ethyl N-{4-[(6,7-dimethoxy-4-quinolyl)oxy]-2,3-dimethylphenyl}carbamate] |  |
| 24 | 336 | COc1cc2nccc(Oc3cc(C)c(NC(=O)OC(C)c4cccc(Cl)c4)cc3C)c2cc1OC (stereo not drawn) [Example 5, 1-(3-Chlorophenyl)ethyl N-{4-[(6,7-dimethoxy-4-quinolyl)oxy]-2,5-dimethylphenyl}carbamate] |  |
| < 10 | 45 | COc1cc2nccc(Oc3ccc(NC(=O)OCc4ccc(F)cc4)c(C)c3C)c2cc1OC [Example 9, 4-Fluorobenzyl N-{4-[(6,7-dimethoxy-4-quinolyl)oxy]-2,3-dimethylphenyl}carbamate] |  |
| 11 | 106 | COc1cc2nccc(Oc3cc(C)c(NC(=O)OCc4ccc(F)cc4)cc3C)c2cc1OC [Example 10, 4-Fluorobenzyl N-{4-[(6,7-dimethoxy-4-quinolyl)oxy]-2,5-dimethylphenyl}carbamate] |  |
| < 10 | 36 | COc1cc2ncnc(Oc3ccc(NC(=O)OCc4ccc(F)cc4)cc3)c2cc1OC [Example 11, 4-Fluorobenzyl N-{4-[(6,7-dimethoxy-4-quinazolinyl)oxy]phenyl}carbamate] |  |
| < 10 | 135 | COc1cc2nccc(Oc3ccc(NC(=O)OC(C)c4ccccc4Cl)cc3)c2cc1OC (stereo not drawn) [Example 13, 1-(2-Chlorophenyl)ethyl N-{4-[(6,7-dimethoxy-4-quinolyl)oxy]phenyl}carbamate] |  |
| 21 |  | COc1cc2ncnc(Oc3ccc(NC(=O)OC(C)c4ccccc4Cl)cc3)c2cc1OC (stereo not drawn) [Example 15, 1-(2-Chlorophenyl)ethyl N-{4-[(6,7-dimethoxy-4-quinazolinyl)oxy]phenyl}carbamate] | inhibition at 1 µM (c-kit; Mo7e, figure in parentheses in −( ), at 1000 nM): 48% |
| < 10 | 57 | COc1cc2nccc(Oc3ccc(NC(=O)OCCCOc4ccccc4Cl)c(C)c3C)c2cc1OC [Example 17, 3-(2-Chlorophenoxy)propyl N-{4-[(6,7-dimethoxy-4-quinolyl)oxy]-2,3-dimethylphenyl}carbamate] |  |
| 22 | 93 | COc1cc2nccc(Oc3cc(C)c(NC(=O)OCCCOc4ccccc4Cl)cc3C)c2cc1OC [Example 18, 3-(2-Chlorophenoxy)propyl N-{4-[(6,7-dimethoxy-4-quinolyl)oxy]-2,5-dimethylphenyl}carbamate] |  |
| < 10 | 135 | COc1cc2nccc(Oc3ccc(NC(=O)OCc4ccc(C(F)(F)F)cc4)cc3)c2cc1OC [Example 21, 4-(Trifluoromethyl)benzyl N-{4-[(6,7-dimethoxy-4-quinolyl)oxy]phenyl}carbamate] |  |
| < 10 | 186 | COc1cc2nccc(Oc3ccc(NC(=O)OCc4ccc(C(F)(F)F)cc4)c(C)c3C)c2cc1OC [Example 22, 4-(Trifluoromethyl)benzyl N-{4-[(6,7-dimethoxy-4-quinolyl)oxy]-2,3-dimethylphenyl}carbamate] |  |
| < 10 | 475 | COc1cc2nccc(Oc3cc(C)c(NC(=O)OCc4ccc(C(F)(F)F)cc4)cc3C)c2cc1OC [Example 23, 4-(Trifluoromethyl)benzyl N-{4-[(6,7-dimethoxy-4-quinolyl)oxy]-2,5-dimethylphenyl}carbamate] |  |
